Entries after “also recorded” stand apart in the source; their conditions may differ. Where two headings read alike, the source gives them in different places.
Columns and labels:
[1] = assay type: in vivo, human; details: for Cmax: N-desmethyl sildenafil, after 2.5 mg IV bolus sildenafil; for observed maximum concentration of plasma sildenafil: 2.5 mg IV bolus
[2] = cited from earlier work
[3] = Tolerability and hemodynamics; assay type: in vivo, human; details: for tolerability / safety of IV sildenafil: both subjects, single 2.5 mg IV bolus injection
[4] = healthy volunteers; cited from earlier work
[5] = subject 1, 16 min after 2.5 mg IV bolus sildenafil
[6] = subject 1, 30 min after 2.5 mg IV bolus sildenafil
[7] = subject 1, 60 min after 2.5 mg IV bolus sildenafil
[8] = subject 1, 120 min after 2.5 mg IV bolus sildenafil
[9] = subject 1, 178 min after 2.5 mg IV bolus sildenafil
[10] = subject 1, 242 min after 2.5 mg IV bolus sildenafil
[11] = subject 1, 360 min after 2.5 mg IV bolus sildenafil
[12] = subject 1, 480 min after 2.5 mg IV bolus sildenafil
[13] = subject 2, 15 min after 2.5 mg IV bolus sildenafil
[14] = subject 2, 30 min after 2.5 mg IV bolus sildenafil
[15] = subject 2, 60 min after 2.5 mg IV bolus sildenafil
[16] = subject 2, 122 min after 2.5 mg IV bolus sildenafil
[17] = subject 2, 180 min after 2.5 mg IV bolus sildenafil
[18] = subject 2, 240 min after 2.5 mg IV bolus sildenafil
[19] = subject 2, 360 min after 2.5 mg IV bolus sildenafil
[20] = subject 2, 480 min after 2.5 mg IV bolus sildenafil

SMILES: CCCc1nn(C)c2c(=O)[nH]c(-c3cc(S(=O)(=O)N4CCNCC4)ccc3OCC)nc12 [N-desmethyl Sildenafil, N-desmethyl sildenafil]
- Cmax ([1]; subject 1): 2.6 ng/mL
- Cmax ([1]; subject 2): 1.1 ng/mL
- N-desmethyl Sildenafil Concentration ([1]; plasma, subject 1, 16 min after 2.5 mg IV bolus sildenafil): 1.21 ng/mL
- N-desmethyl Sildenafil Concentration ([1]; plasma, subject 1, 30 min after 2.5 mg IV bolus sildenafil): BLQ
- N-desmethyl Sildenafil Concentration ([1]; plasma, subject 1, 60 min after 2.5 mg IV bolus sildenafil): 2.26 ng/mL
- N-desmethyl Sildenafil Concentration ([1]; plasma, subject 1, 88 min after 2.5 mg IV bolus sildenafil): 2.10 ng/mL
- N-desmethyl Sildenafil Concentration ([1]; plasma, subject 1, 120 min after 2.5 mg IV bolus sildenafil): 2.49 ng/mL
- N-desmethyl Sildenafil Concentration ([1]; plasma, subject 1, 178 min after 2.5 mg IV bolus sildenafil): 2.64 ng/mL
- N-desmethyl Sildenafil Concentration ([1]; plasma, subject 1, 242 min after 2.5 mg IV bolus sildenafil): 2.19 ng/mL
- N-desmethyl Sildenafil Concentration ([1]; plasma, subject 1, 360 min after 2.5 mg IV bolus sildenafil): 2.00 ng/mL
- N-desmethyl Sildenafil Concentration ([1]; plasma, subject 1, 480 min after 2.5 mg IV bolus sildenafil): 1.53 ng/mL
- N-desmethyl Sildenafil Concentration ([1]; plasma, subject 2, 15 min after 2.5 mg IV bolus sildenafil): BLQ
- N-desmethyl Sildenafil Concentration ([1]; plasma, subject 2, 30 min after 2.5 mg IV bolus sildenafil): BLQ
- N-desmethyl Sildenafil Concentration ([1]; plasma, subject 2, 60 min after 2.5 mg IV bolus sildenafil): BLQ
- N-desmethyl Sildenafil Concentration ([1]; plasma, subject 2, 90 min after 2.5 mg IV bolus sildenafil): BLQ
- N-desmethyl Sildenafil Concentration ([1]; plasma, subject 2, 122 min after 2.5 mg IV bolus sildenafil): BLQ
- N-desmethyl Sildenafil Concentration ([1]; plasma, subject 2, 180 min after 2.5 mg IV bolus sildenafil): 1.06 ng/mL
- N-desmethyl Sildenafil Concentration ([1]; plasma, subject 2, 240 min after 2.5 mg IV bolus sildenafil): BLQ
- N-desmethyl Sildenafil Concentration ([1]; plasma, subject 2, 360 min after 2.5 mg IV bolus sildenafil): BLQ
- N-desmethyl Sildenafil Concentration ([1]; plasma, subject 2, 480 min after 2.5 mg IV bolus sildenafil): BLQ
- metabolite concentrations ([1]; plasma, subject 2, all times except 180 minutes after sildenafil injection): unmeasurable
- N-desmethyl sildenafil AUC increased compared to healthy subjects ([2]; CTP class A and B cirrhosis): 154%
- mean Cmax of N-desmethyl sildenafil increased compared to normal controls ([2]; CTP class A and B cirrhosis): 87%
- N-desmethyl sildenafil AUC/sildenafil AUC ([2]; healthy subjects): 52%
- N-desmethyl sildenafil AUC/sildenafil AUC ([2]; subjects with CTP Class A and B cirrhosis): 71%

SMILES: CCCc1nn(C)c2c(=O)[nH]c(-c3cc(S(=O)(=O)N4CCN(C)CC4)ccc3OCC)nc12 [Sildenafil, sildenafil]
- tolerability / safety of IV sildenafil [3]: without side effects
- tolerability / safety of IV sildenafil ([3]; listed as sildenafil): without adverse events; also recorded: safe and tolerable; also recorded: can be safely administered
- adverse events reported at interview ([3]; forty-eight hours after sildenafil injection): did not report any adverse events
- Heart Rate [3, 5]: 53
- Mean Arterial Pressure [3, 5]: 75 mmHg
- Heart Rate [3, 6]: 53
- Mean Arterial Pressure [3, 6]: 78 mmHg
- Heart Rate [3, 7]: 55
- Mean Arterial Pressure [3, 7]: 78 mmHg
- Heart Rate [3, 8]: 51
- Mean Arterial Pressure [3, 8]: 75 mmHg
- Heart Rate [3, 9]: 50
- Mean Arterial Pressure [3, 9]: 79 mmHg
- Heart Rate [3, 10]: 50
- Mean Arterial Pressure [3, 10]: 78 mmHg
- Heart Rate [3, 11]: 53
- Mean Arterial Pressure [3, 11]: 83 mmHg
- Heart Rate [3, 12]: 54
- Mean Arterial Pressure [3, 12]: 83 mmHg
- lowest MAP observed ([3]; subject 1, at 16 and 120 minutes after sildenafil injection): 75
- Heart Rate [3, 13]: 98
- Mean Arterial Pressure [3, 13]: 69 mmHg
- Heart Rate [3, 14]: 98
- Mean Arterial Pressure [3, 14]: 73 mmHg
- Heart Rate [3, 15]: 98
- Mean Arterial Pressure [3, 15]: 75 mmHg
- Heart Rate [3, 16]: 90
- Mean Arterial Pressure [3, 16]: 81 mmHg
- Heart Rate [3, 17]: 97
- Mean Arterial Pressure [3, 17]: 80 mmHg
- Heart Rate [3, 18]: 93
- Mean Arterial Pressure [3, 18]: 75 mmHg
- Heart Rate [3, 19]: 92
- Mean Arterial Pressure [3, 19]: 72 mmHg
- Heart Rate [3, 20]: 94
- Mean Arterial Pressure [3, 20]: 75 mmHg
- lowest MAP ([3]; subject 2, at 15 minutes after sildenafil injection): 69 mmHg
- adverse events ([3]; up to 9 hours after sildenafil injection): No adverse events
- clearance lower than mean in healthy volunteers ([1]; second value, for CL 14.9 L/hr vs 40.8 L/hr): 71%
- observed maximum concentration of plasma sildenafil ([1]; subject 1 (first value)): 35 ng/mL
- observed maximum concentration of plasma sildenafil ([1]; subject 2 (second value)): 20.6 ng/mL
- mean clearance of sildenafil reduced compared to normal controls ([2]; CTP class A and B cirrhosis, single 50 mg oral dose): 46%
- dose-corrected mean Cmax [4]: 26.6 ng/mL
- mean half-life [4]: 3.9 h

Source: article PMC4623880 (Digestive diseases and sciences, 2015)
